Read-outs that look alike come from different tables or passages of the source.
Experiment: Study 1: single dose cross-over pharmacokinetics, oral vs intracolonic Na.MPA
Design: species or system male beagle dogs
Details: dog, in vivo
Experimental: Two single dose cross-over studies were conducted using a canine model (male beagle dogs) to evaluate the potential of an enteric coated-extended release sodium mycophenolate formulation (“EC-ER-Na.MP”). In a first cross-over study, the pharmacokinetics of MPA and its metabolites (MPAG and AcMPAG) following oral dosing of 180 mg of EC-Na.MPA was compared with intracolonic (IC) administration of Na.MPA. In a second cross-over study, 270 mg of an EC-ER-Na.MPA formulation was administered in the both fed and fasted states and pharmacokinetics were compared with oral administration of 10 mg/kg MMF in the fasted state. Both studies were conducted by Absorption Systems (San Diego, Calif.).
Study 1: For three days prior to IC dosing, dogs (n=5) were offered a soft diet consisting of canned wet food (Pedigree® Choice Cuts). Otherwise, the dogs were offered their standard diet (LabDiet 5006 laboratory canine diet). Prior to each dosing event, the dogs were fasted for 12 hours prior to dosing until 4 hours post-dose, when food was returned. Animals had free access to water throughout the study. Prior to IC dosing, each dog was given a non-stimulant enema approximately 1 hour prior to dosing to remove feces from the colon. Prior to PO dosing, each dog (n=5) was pre-treated with an intramuscular dose of pentagastrin (6 μg/kg) approximately 30 minutes prior to dosing. Capsules were administered by placement in the back of the throat followed by a 10 mL flush with water.
Each dog received a total dose of 180 mg of MPA for each dose. For IC dosing, MPA was delivered as a solution via an endoscope, and for PO dosing each dog received a single Myfortic® 180 mg enteric coated capsule. Following administration, blood samples were collected up to 24 hours post-dose. Plasma concentrations of MPA, MPAG, and AcMPAG were determined with a qualified LC-MS/MS method, and pharmacokinetic parameters were determined with WinNonlin v.6.4 software.

COc1c(C)c2c(c(O)c1C/C=C(\C)CCC(=O)O)C(=O)OC2 [MPA, Mycophenolic acid]
Cmax (male, beagle, 180 mg): 29500 ± 12600 ng/mL | MPA Cmax (male, beagle, 180 mg): 29460 ng/mL | half-life (male, beagle, 180 mg): 5.55 ± 1.77 h | Cmax (male, beagle, po, 180 mg): 27300 ± 12000 ng/mL | MPA Cmax (male, beagle, po, 180 mg): 27320 ng/mL | half-life (male, beagle, po, 180 mg): 4.49 h

COc1c(C)c2c(c(O)c1C/C=C(\C)CCC(=O)O)C(=O)OC2 [Na•MPA, sodium mycophenolate]
MPA:metabolite ratios compared with oral MMF or enteric-coated Na.MPA: higher MPA:metabolite ratios | MRT last (male beagle dogs, plasma, ORAL 180 mg (Myfortic enteric coated capsule), single dose, fasted, read-out: MPA MRTlast): 2.86 h | AUC(0-inf) (male, beagle, 180 mg): 31900 ng·h/mL | AUC(0-t) (male, beagle, 180 mg): 31000 ng·h/mL | MPA Cmax (male, beagle, 180 mg): 29460 ng/mL | MPA t1/2 (male, beagle, 180 mg): 5.55 h | MPA/AcMPAG Ratio (AUClast) (male, beagle, 180 mg): 171.19 | MPA/MPAG Ratio (AUC∞) (male, beagle, 180 mg): 2.45 | MRT last (male, beagle, 180 mg): 2.76 h | Tmax (male, beagle, 180 mg): 0.23 h | AUC(0-inf) (male, beagle, po, 180 mg): 45700 ng·h/mL | AUC(0-t) (male, beagle, po, 180 mg): 36400 ng·h/mL | MPA Cmax (male, beagle, po, 180 mg): 27320 ng/mL | MPA t1/2 (male, beagle, po, 180 mg): 4.49 h | MPA/AcMPAG Ratio (AUClast) (male, beagle, po, 180 mg): 88.40 | MPA/MPAG Ratio (AUClast) (male, beagle, po, 180 mg): 1.42 | MPA/MPAG Ratio (AUC∞) (male, beagle, po, 180 mg): 1.29 | Tmax (male, beagle, po, 180 mg): 1 h
